We go through 13 compounds from patent US11440923B2, “Substituted macrocyclic indole derivatives” (Bayer Aktiengesellschaft, priority 2017, dated 2022).

Where a name gives a salt, the structure may show the parent alone.

In test [1] the target is MCL1 protein / biotinylated BIM BH3 peptide in RKO cells (Homo sapiens (Human), UniProt Q07820). The test is described as follows: PIxEL: protein-protein interaction in permeabilized cells by ELISA (Assay 5). The class given is cell-based. Particulars: PIxEL IC50 (median). Here is the method:
PIxEL: Protein-Protein Interaction in Permeabilized Cells by ELISA
Most MCL1 protein molecules are localized at the mitochondria outer membrane and sequester pro-apoptotic proteins through binding of their BCL2 homology domain 3 (BH3 domain). MEB buffer (150 mM mannitol, 10 mM HEPES pH 7.5, 50 mM KCl, 20 μM EDTA, 20 μM EGTA, 5 mM potassium succinate, 0.1% protease-free BSA (SIGMA) with low dose digitonin (0.002%) permeabilizes plasma membrane while leaves live mitochondria, where MCL1 maintains its native localization and conformation. Unlike biophysical assays (e.g. TR-FRET) that use truncated recombinant MCL1 protein, this assay uses full length endogenous MCL1 protein at mitochondria outer membrane. It measures the interaction between MCL1 protein and biotinylated BIM BH3 peptide. Compounds can compete with BIM BH3 peptide to bind to MCL1 protein.
On day 1, RKO colon cancer cell line cells were plated at 0.8 million cells/ml, 100 μl/well in 96-well flat bottom TC plates (Corning). MCL1 antibody (Santa Cruz sc-12756) were diluted at 200 fold (final concentration 1 μg/ml) in carbonate buffer (Thermo Fisher Scientific, pH 9.6), and 50 μl of diluted antibody was added to each well of high bind ELISA plates ([…]). Each plate was tapped to make sure liquid covering entire bottom of wells and incubate at 37° C. overnight.
On the second day, MCL1 antibody was washed from ELISA plate. 250 μl Odyssey® Blocking Buffer (PBS) (Li-Cor) was added to each well, incubated at room temperature for at least 1 hour, then washed once with 250 μl 1×PBST. Plates with RKO cells were gently washed once with 100 μl/well PBS, once with 100 μl/well MEB buffer without digitonin, then 100 μl of MEB buffer with 0.002% digitonin was gently added to each well. Compounds were added with HP Tecan compound dispenser in 3-fold dilution series, highest dose 30 μM, 10-dose per compound in quadruplicates. Biotin-BIM peptide (synthesized by 21st Century) was added with HP Tecan compound dispenser at 0.2 μM immediately after the addition of compounds. Plates were rocked for 1 hour at room temperature. Then MEB buffer was aspirated and 50 μl of CHAPS buffer (50 mM Tris-Cl, pH 7.4, 150 mM NaCl, 1% CHAPS, 1 mM EDTA, 1 mM EGTA, cOmplete protease inhibitors (Roche), PhosSTOP (Roche)) was added to each well. Plates were rocked for 1 hour at 4° C., then 45 μl cell lysate from each well were transferred to ELISA plates coated with MCL1 antibody. Plates were incubated overnight in the cold room with rocking.
On the third day, ELISA plates were washed once with 250 μl 1×PBST. Streptavidin-poly-HRP (Thermo Fisher Scientific) was diluted to 20 ng/ml in Odyssey blocking buffer plus 0.05% Triton-100, and 100 μl was added to each well of the ELISA plate. Plates were incubated at room temperature for 1 hour with rocking, then washed with 100 μl 1×PBST for 3 times. Each SuperSignal ELISA Femto Maximum Sensitivity substrate was added to a 50-ml tube and mixed, then 100 μl of mixed substrate was added to each well. Plates were shaken for 1 minute then luminescence was measured by Envision plate reader […]. Signal of each well were normalized by no-compound control and no-cell control. IC50 was calculated using Graphic Pad PRISM software.
(In an ELISA, binding on a coated surface is turned into a signal by an enzyme label.)

For a further test, the target named is MCL-1 (Homo sapiens (Human), UniProt Q07820, K194A/K197A/R201A). The test is described as follows: Protein-protein interaction assay MCL-1/Noxa BH3 peptide (MCL-1 assay, TR-FRET). The note with it: MCL-1 Assay IC50 (median). Type of test: binding. The gist of the method:
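Competition TR-FRET with MBP-MCL-1 (aa 173-321) at 1 nM final and biotinylated Noxa BH3 peptide, pH 7 Tris buffer. Compounds pre-incubated 10 min at 22° C., then 1 h at 22° C. and overnight at 4° C. 665/620 nm ratio normalized to DMSO; IC50 from 4-parameter fit.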
(In general: In TR-FRET formats the signal depends on donor and acceptor labels being close together.)

Sequence of MCL1 protein / biotinylated BIM BH3 peptide in RKO cells (Q07820 whole entry): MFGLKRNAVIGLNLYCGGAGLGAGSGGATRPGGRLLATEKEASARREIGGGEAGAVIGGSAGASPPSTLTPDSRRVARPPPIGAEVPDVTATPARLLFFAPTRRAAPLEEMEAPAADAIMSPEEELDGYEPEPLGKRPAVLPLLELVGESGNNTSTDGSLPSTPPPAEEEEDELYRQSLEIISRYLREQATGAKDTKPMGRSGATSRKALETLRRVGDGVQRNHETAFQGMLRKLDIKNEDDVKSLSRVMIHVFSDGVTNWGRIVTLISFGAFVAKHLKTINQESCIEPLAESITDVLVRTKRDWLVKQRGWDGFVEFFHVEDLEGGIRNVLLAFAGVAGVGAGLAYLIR
Sequence of MCL-1 (Q07820 whole entry, looked up, stated change not applied, the tested form may be a part): as the sequence (Q07820 whole entry) above

The term IC50 denotes the concentration needed to halve the response being measured. In the case of `CCc1c2c(nn1C)C(C(F)(F)F)OCCCCn1c(C(=O)O)c(CCCOc3cccc4ccccc34)c3ccc(Cl)c-2c31` (racemic) [Example 27, (rac)-4-Chloro-3-ethyl-2-methyl-7-{3-[(naphthalen-1-yl)oxy]propyl}-15-(trifluoromethyl)-2,10,11,12,13,15-hexahydropyrazolo[4′,3′:9,10][1,6]oxazacycloundecino[8,7,6-hi]indole-8-carboxylic Acid], the IC50 was 1960 nM in test [1] and 3.8 nM at MCL-1.
Taken in the same sequence, the figures for `CCc1c2c(nn1C)C(CCN1CCOCC1)OCCCCn1c(C(=O)O)c(CCCOc3cccc4cc(F)ccc34)c3ccc(F)c-2c31` (single isomer, unassigned; enantiomer 1) [Example 50, (+)-3-ethyl-4-fluoro-7-{3-[(6-fluoronaphthalen-1-yl)oxy]propyl}-2-methyl-15-[2-(morpholin-4-yl)ethyl]-2,10,11,12,13,15-hexahydropyrazolo[4′,3′:9,10][1,6]oxazacycloundecino[8,7,6-hi]indole-8-carboxylic Acid (Enantiomer 1)] were 36.8 nM and 0.48 nM.
Taken in the same sequence, the figures for `CCc1c2c(nn1C)C(CCN1CCOCC1)OCCCCn1c(C(=O)O)c(CCCOc3cccc4ccccc34)c3ccc(F)c-2c31` (racemic) [Example 10, (rac)-3-ethyl-4-fluoro-2-methyl-15-[2-(morpholin-4-yl)ethyl]-7-[3-(naphthalen-1-yloxy)propyl]-2,10,11,12,13,15-hexahydropyrazolo[4′,3′:9,10][1,6]oxazacycloundecino[8,7,6-hi]indole-8-carboxylic Acid] were 325 nM and 0.72 nM.
Taken in the same sequence, the figures for `Cc1c2c(nn1C)C(CCN1CCOCC1)OCCCCn1c(C(=O)O)c(CCCOc3cccc4cc(F)ccc34)c3ccc(Cl)c-2c31` (single isomer, unassigned; enantiomer 2) [Example 18, 4-chloro-7-{3-[(6-fluoronaphthalen-1-yl)oxy]propyl}-2,3-dimethyl-15-[2-(morpholin-4-yl)ethyl]-2,10,11,12,13,15-hexahydropyrazolo[4′,3′:9,10][1,6]oxazacycloundecino[8,7,6-hi]indole-8-carboxylic Acid (Enantiomer 2)] were 2430 nM and 42 nM.
For `Cc1c2c(nn1C)C(CCN1CCOCC1)OCCCCn1c(C(=O)O)c(CCCOc3cccc4ccccc34)c3ccc(Cl)c-2c31` (single isomer, unassigned; enantiomer 2) [Example 15, 4-chloro-2,3-dimethyl-15-[2-(morpholin-4-yl)ethyl]-7-{3-[(naphthalen-1-yl)oxy]propyl}-2,10,11,12,13,15-hexahydropyrazolo[4′,3′:9,10][1,6]oxazacycloundecino[8,7,6-hi]indole-8-carboxylic Acid (Enantiomer 2)], the half-inhibitory concentration (IC50) stood at 12500 nM in test [1] and 65 nM on MCL-1.
Taken in the same sequence, the figures for `Cc1c2c(nn1C)C(CCO)OCCCCn1c(C(=O)O)c(CCCOc3cccc4ccccc34)c3ccc(Cl)c-2c31` (racemic) [Example 26, (rac)-4-chloro-15-(2-hydroxyethyl)-2,3-dimethyl-7-{3-[(naphthalen-1-yl)oxy]propyl}-2,10,11,12,13,15-hexahydropyrazolo[4′,3′:9,10][1,6]oxazacycloundecino[8,7,6-hi]indole-8-carboxylic Acid] were 1250 nM and 1.1 nM.
On the same counts, the results for `Cc1c2c(nn1C)C(CCO)OCCCCn1c(C(=O)O)c(CCCOc3cccc4ccccc34)c3ccc(Cl)c-2c31` (single isomer, unassigned; enantiomer 1) [Example 31, (+)-4-chloro-15-(2-hydroxyethyl)-2,3-dimethyl-7-{3-[(naphthalen-1-yl)oxy]propyl}-2,10,11,12,13,15-hexahydropyrazolo[4′,3′:9,10][1,6]oxazacycloundecino[8,7,6-hi]indole-8-carboxylic Acid (Enantiomer 1)] are 481 nM and 0.26 nM.
Taken in the same sequence, the figures for `CCc1c2c(nn1C)C(c1ccccc1)OCCCCn1c(C(=O)O)c(CCCOc3cccc4cc(F)ccc34)c3ccc(Cl)c-2c31` (racemic) [Example 59, (rac)-4-chloro-3-ethyl-7-{3-[(6-fluoronaphthalen-1-yl)oxy]propyl}-2-methyl-(15-rac)-phenyl-2,10,11,12,13,15-hexahydropyrazolo[4′,3′:9,10][1,6]oxazacycloundecino[8,7,6-hi]indole-8-carboxylic Acid] were 190 nM and 2.7 nM.
Compound `Cc1c2c(nn1C)C(CCN1CCOCC1)OCCCCn1c(C(=O)O)c(CCCOc3cccc4cc(F)ccc34)c3ccc(Cl)c-2c31` (single isomer, unassigned; enantiomer 1) [Example 17, 4-chloro-7-{3-[(6-fluoronaphthalen-1-yl)oxy]propyl}-2,3-dimethyl-15-[2-(morpholin-4-yl)ethyl]-2,10,11,12,13,15-hexahydropyrazolo[4′,3′:9,10][1,6]oxazacycloundecino[8,7,6-hi]indole-8-carboxylic Acid—N-ethylethanamine (Enantiomer 1)] returned a half-maximal inhibitory concentration (IC50) in test [1] of 35.7 nM.
For `Cc1c2c(nn1C)C(CCN1CCOCC1)OCCCCn1c(C(=O)O)c(CCCOc3cccc4cc(F)ccc34)c3ccc(F)c-2c31` (single isomer, unassigned; enantiomer 1) [Example 20, 4-fluoro-7-{3-[(6-fluoronaphthalen-1-yl)oxy]propyl}-2,3-dimethyl-15-[2-(morpholin-4-yl)ethyl]-2,10,11,12,13,15-hexahydropyrazolo[4′,3′:9,10][1,6]oxazacycloundecino[8,7,6-hi]indole-8-carboxylic Acid—N-ethylethanamine (Enantiomer 1)], in test [1], the IC50 came out at 100 nM.
Same read-out and setting: the value for `CCc1c2c(nn1C)C(CCOC)OCCCCn1c(C(=O)O)c(CCCOc3cccc4cc(F)ccc34)c3ccc(Cl)c-2c31` (single isomer, unassigned; enantiomer 1) [Example 42, (+)-4-chloro-3-ethyl-7-{3-[(6-fluoronaphthalen-1-yl)oxy]propyl}-15-(2-methoxyethyl)-2-methyl-2,10,11,12,13,15-hexahydropyrazolo[4′,3′:9,10][1,6]oxazacycloundecino[8,7,6-hi]indole-8-carboxylic Acid—N-ethylethanamine Salt (Enantiomer 1)] was 45.1 nM; that for `CCc1c2c(nn1C)C(CCC(C)(C)O)OCCCCn1c(C(=O)O)c(CCCOc3cccc4cc(F)ccc34)c3ccc(Cl)c-2c31` (single isomer, unassigned; enantiomer 1) [Example 75, (+)-4-chloro-3-ethyl-7-{3-[(6-fluoronaphthalen-1-yl)oxy]propyl}-15-(3-hydroxy-3-methylbutyl)-2-methyl-2,10,11,12,13,15-hexahydropyrazolo[4′,3′:9,10][1,6]oxazacycloundecino[8,7,6-hi]indole-8-carboxylic Acid—N-ethylethanamine Salt (Enantiomer 1)] was 27.5 nM.
Same read-out and setting: next, `CCc1c2c(nn1C)C(CCC1CCOCC1)OCCCCn1c(C(=O)O)c(CCCOc3cccc4cc(F)ccc34)c3ccc(Cl)c-2c31` (single isomer, unassigned; enantiomer 1) [Example 63, (+)-4-chloro-3-ethyl-7-{3-[(6-fluoronaphthalen-1-yl)oxy]propyl}-2-methyl-15-[2-(oxan-4-yl)ethyl]-2,10,11,12,13,15-hexahydropyrazolo[4′,3′:9,10][1,6]oxazacycloundecino[8,7,6-hi]indole-8-carboxylic Acid—N-ethylethanamine Salt (Enantiomer 1)]: 14.2 nM.
